# Experimental data as given in PubChem BioAssay AID256 (DTP/NCI, 2004).
# Where “and” joins values, the source holds several entries; their conditions need not be identical. Equal values may be shown once. Toxic doses and inconclusive results are not listed.
# System: CD2F1 mice, L1210 leukemia ip, survival T/C
# Test: NCI In Vivo Anticancer Drug Screen. Data for tumor model L1210 Leukemia (intraperitoneal) in CD2F1 (CDF1) mice
# Conditions: higher = longer survival
# In short: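 Transplantable tumor in mice; compound-treated vs vehicle-treated groups. Read-out = treated/control ratio of the measured endpoint.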
# [1] = endpoint: mean survival time, dose: 100.0 mg/kg/injection, schedule: Q04DX003 (ip), vehicle: saline with Tween-80
# [2] = endpoint: mean survival time, dose: 50.0 mg/kg/injection, schedule: Q01DX009 (ip), vehicle: saline with Tween-80
# [3] = endpoint: mean survival time, dose: 100.0 mg/kg/injection, schedule: Q01DX009 (ip), vehicle: saline with Tween-80
# [4] = endpoint: mean survival time, dose: 200.0 mg/kg/injection, schedule: Q01DX009 (ip), vehicle: saline with Tween-80
# [5] = endpoint: mean survival time, dose: 200.0 mg/kg/injection, schedule: Q04DX003 (ip), vehicle: saline with Tween-80
# [6] = endpoint: mean survival time, dose: 400.0 mg/kg/injection, schedule: Q04DX003 (ip), vehicle: saline with Tween-80
smiles,measurement,setting,value
Nc1nc([Se])c2ncn(C3OC(CO)C(O)C3O)c2n1 (stereo not given),T/C,"endpoint: mean survival time, dose: 1.0 mg/kg/injection, schedule: Q01DX009 (ip), vehicle: saline",123 % of control
same,T/C,"endpoint: mean survival time, dose: 2.0 mg/kg/injection, schedule: Q01DX009 (ip), vehicle: distilled water + Tween-80",114 % of control
same,T/C,"endpoint: mean survival time, dose: 2.0 mg/kg/injection, schedule: Q01DX009 (ip), vehicle: water",119 % of control
same,T/C,"endpoint: mean survival time, dose: 2.0 mg/kg/injection, schedule: Q04DX003 (ip), vehicle: DMSO",117 % of control
same,T/C,"endpoint: mean survival time, dose: 2.0 mg/kg/injection, schedule: Q04DX003 (ip), vehicle: clinical formulation",116 % of control and 109 % of control
same,T/C,"endpoint: mean survival time, dose: 2.0 mg/kg/injection, schedule: Q04DX003 (ip), vehicle: saline",115 % of control and 119 % of control
same,T/C,"endpoint: mean survival time, dose: 2.5 mg/kg/injection, schedule: Q01DX005 (iv), vehicle: water",95 % of control
same,T/C,"endpoint: mean survival time, dose: 4.0 mg/kg/injection, schedule: Q04DX003 (ip), vehicle: DMSO",113 % of control
same,T/C,"endpoint: mean survival time, dose: 4.0 mg/kg/injection, schedule: Q04DX003 (ip), vehicle: clinical formulation",113 % of control
same,T/C,"endpoint: mean survival time, dose: 5.0 mg/kg/injection, schedule: Q01DX005 (iv), vehicle: water",113 % of control
same,T/C,"endpoint: mean survival time, dose: 8.0 mg/kg/injection, schedule: Q04DX003 (ip), vehicle: clinical formulation",115 % of control
same,T/C,"endpoint: mean survival time, dose: 12.5 mg/kg/injection, schedule: Q01DX005 (ip), vehicle: saline",169 % of control
same,T/C,"endpoint: mean survival time, dose: 16.0 mg/kg/injection, schedule: Q01DX009 (ip), vehicle: distilled water + Tween-80",150 % of control
same,T/C,"endpoint: mean survival time, dose: 16.0 mg/kg/injection, schedule: Q01DX009 (ip), vehicle: water",119 % of control
same,T/C,"endpoint: mean survival time, dose: 25.0 mg/kg/injection, schedule: Q01DX005 (ip), vehicle: saline",191 % of control
same,T/C,"endpoint: mean survival time, dose: 32.0 mg/kg/injection, schedule: Q01DX009 (ip), vehicle: distilled water + Tween-80",156 % of control
same,T/C,"endpoint: mean survival time, dose: 32.0 mg/kg/injection, schedule: Q01DX009 (ip), vehicle: saline",116 % of control and 117 % of control
same,T/C,"endpoint: mean survival time, dose: 32.0 mg/kg/injection, schedule: Q01DX009 (ip), vehicle: water",92 % of control
same,T/C,"endpoint: mean survival time, dose: 40.0 mg/kg/injection, schedule: Q01DX005 (iv), vehicle: water",151 % of control
same,T/C,"endpoint: mean survival time, dose: 50.0 mg/kg/injection, schedule: Q01DX005 (ip), vehicle: saline",187 % of control
same,T/C,"endpoint: mean survival time, dose: 64.0 mg/kg/injection, schedule: Q01DX009 (ip), vehicle: saline",87 % of control
same,T/C,"endpoint: median survival time, dose: 1.0 mg/kg/injection, schedule: Q01DX009 (sc), vehicle: DMSO",100 % of control
same,T/C,"endpoint: median survival time, dose: 1.0 mg/kg/injection, schedule: Q03HX016 (ip), vehicle: DMSO",153 % of control
same,T/C,"endpoint: median survival time, dose: 1.0 mg/kg/injection, schedule: Q03HX024 (ip), vehicle: DMSO",150 % of control
same,T/C,"endpoint: median survival time, dose: 2.0 mg/kg/injection, schedule: Q01DX009 (ip), vehicle: DMSO",172 % of control
same,T/C,"endpoint: median survival time, dose: 2.0 mg/kg/injection, schedule: Q01DX009 (sc), vehicle: DMSO",111 % of control
same,T/C,"endpoint: median survival time, dose: 2.0 mg/kg/injection, schedule: Q03HX008 (ip), vehicle: DMSO",171 % of control
same,T/C,"endpoint: median survival time, dose: 2.0 mg/kg/injection, schedule: Q03HX016 (ip), vehicle: DMSO",162 % of control
same,T/C,"endpoint: median survival time, dose: 2.0 mg/kg/injection, schedule: Q03HX024 (ip), vehicle: DMSO",178 % of control
same,T/C,"endpoint: median survival time, dose: 4.0 mg/kg/injection, schedule: Q01DX009 (ip), vehicle: DMSO",200 % of control
same,T/C,"endpoint: median survival time, dose: 4.0 mg/kg/injection, schedule: Q01DX009 (oral), vehicle: DMSO",107 % of control
same,T/C,"endpoint: median survival time, dose: 4.0 mg/kg/injection, schedule: Q03HX008 (ip), vehicle: DMSO",173 % of control
same,T/C,"endpoint: median survival time, dose: 4.0 mg/kg/injection, schedule: Q03HX016 (ip), vehicle: DMSO",185 % of control
same,T/C,"endpoint: median survival time, dose: 4.0 mg/kg/injection, schedule: Q03HX024 (ip), vehicle: DMSO",175 % of control
same,T/C,"endpoint: median survival time, dose: 4.0 mg/kg/injection, schedule: Q08DX002 (ip), vehicle: DMSO",123 % of control
same,T/C,"endpoint: median survival time, dose: 8.0 mg/kg/injection, schedule: Q01DX001 (sc), vehicle: DMSO",112 % of control
same,T/C,"endpoint: median survival time, dose: 8.0 mg/kg/injection, schedule: Q01DX009 (ip), vehicle: DMSO",175 % of control
same,T/C,"endpoint: median survival time, dose: 8.0 mg/kg/injection, schedule: Q01DX009 (oral), vehicle: DMSO",123 % of control
same,T/C,"endpoint: median survival time, dose: 8.0 mg/kg/injection, schedule: Q01DX009 (sc), vehicle: DMSO",166 % of control
same,T/C,"endpoint: median survival time, dose: 8.0 mg/kg/injection, schedule: Q03HX008 (ip), vehicle: DMSO",176 % of control
same,T/C,"endpoint: median survival time, dose: 8.0 mg/kg/injection, schedule: Q03HX016 (ip), vehicle: DMSO",176 % of control
same,T/C,"endpoint: median survival time, dose: 8.0 mg/kg/injection, schedule: Q03HX024 (ip), vehicle: DMSO",185 % of control
same,T/C,"endpoint: median survival time, dose: 8.0 mg/kg/injection, schedule: Q04DX003 (ip), vehicle: DMSO",166 % of control
same,T/C,"endpoint: median survival time, dose: 16.0 mg/kg/injection, schedule: Q01DX001 (oral), vehicle: DMSO",120 % of control
same,T/C,"endpoint: median survival time, dose: 16.0 mg/kg/injection, schedule: Q01DX001 (sc), vehicle: DMSO",121 % of control
same,T/C,"endpoint: median survival time, dose: 16.0 mg/kg/injection, schedule: Q01DX009 (ip), vehicle: DMSO",191 % of control
same,T/C,"endpoint: median survival time, dose: 16.0 mg/kg/injection, schedule: Q01DX009 (oral), vehicle: DMSO",158 % of control
same,T/C,"endpoint: median survival time, dose: 16.0 mg/kg/injection, schedule: Q01DX009 (sc), vehicle: DMSO",187 % of control
same,T/C,"endpoint: median survival time, dose: 16.0 mg/kg/injection, schedule: Q04DX003 (ip), vehicle: DMSO",178 % of control
same,T/C,"endpoint: median survival time, dose: 16.0 mg/kg/injection, schedule: Q08DX002 (ip), vehicle: DMSO",102 % of control
same,T/C,"endpoint: median survival time, dose: 32.0 mg/kg/injection, schedule: Q01DX001 (oral), vehicle: DMSO",117 % of control
same,T/C,"endpoint: median survival time, dose: 32.0 mg/kg/injection, schedule: Q01DX009 (ip), vehicle: DMSO",178 % of control
same,T/C,"endpoint: median survival time, dose: 32.0 mg/kg/injection, schedule: Q01DX009 (oral), vehicle: DMSO",167 % of control
same,T/C,"endpoint: median survival time, dose: 32.0 mg/kg/injection, schedule: Q01DX009 (sc), vehicle: DMSO",160 % of control
same,T/C,"endpoint: median survival time, dose: 32.0 mg/kg/injection, schedule: Q04DX003 (ip), vehicle: DMSO",183 % of control
same,T/C,"endpoint: median survival time, dose: 64.0 mg/kg/injection, schedule: Q01DX009 (ip), vehicle: DMSO",116 % of control
same,T/C,"endpoint: median survival time, dose: 64.0 mg/kg/injection, schedule: Q01DX009 (oral), vehicle: DMSO",160 % of control
same,T/C,"endpoint: median survival time, dose: 64.0 mg/kg/injection, schedule: Q01DX009 (sc), vehicle: DMSO",111 % of control
same,T/C,"endpoint: median survival time, dose: 64.0 mg/kg/injection, schedule: Q04DX003 (ip), vehicle: DMSO",191 % of control
same,T/C,"endpoint: median survival time, dose: 128.0 mg/kg/injection, schedule: Q01DX001 (ip), vehicle: DMSO",121 % of control
Brc1sccc1-c1cccc2ccccc12,T/C,"endpoint: mean survival time, dose: 25.0 mg/kg/injection, schedule: Q04DX003 (ip), vehicle: saline with Tween-80",104 % of control
same,T/C,"endpoint: mean survival time, dose: 50.0 mg/kg/injection, schedule: Q04DX003 (ip), vehicle: saline with Tween-80",96 % of control
same,T/C,[1],104 % of control
O=C(NC(CSCc1ccccc1)C(=O)O)OCc1ccccc1 (stereo not given),T/C,[2],98 % of control
same,T/C,[3],94 % of control
same,T/C,[1],93 % of control
same,T/C,[4],103 % of control
same,T/C,[5],101 % of control
CS(=O)(=O)OCC1C(COS(C)(=O)=O)N(S(C)(=O)=O)S(=O)N1S(C)(=O)=O (stereo not given),T/C,"endpoint: mean survival time, dose: 100.0 mg/kg/injection, schedule: Q01DX001 (ip), vehicle: saline",100 % of control
same,T/C,"endpoint: mean survival time, dose: 100.0 mg/kg/injection, schedule: Q04DX003 (ip), vehicle: saline",111 % of control
same,T/C,"endpoint: mean survival time, dose: 200.0 mg/kg/injection, schedule: Q01DX001 (ip), vehicle: saline",95 % of control
same,T/C,"endpoint: mean survival time, dose: 200.0 mg/kg/injection, schedule: Q04DX003 (ip), vehicle: saline",108 % of control
same,T/C,"endpoint: mean survival time, dose: 400.0 mg/kg/injection, schedule: Q01DX001 (ip), vehicle: saline",94 % of control
same,T/C,"endpoint: mean survival time, dose: 400.0 mg/kg/injection, schedule: Q04DX003 (ip), vehicle: saline",91 % of control
Nc1nnnn1C1CCCCC1,T/C,[5],106 % of control
same,T/C,"endpoint: mean survival time, dose: 400.0 mg/kg/injection, schedule: Q01DX009 (ip), vehicle: saline with Tween-80",92 % of control
same,T/C,[6],97 % of control
O=C1NCC2(CCN(Cc3ccccc3)CC2)N1c1ccccc1,T/C,[1],93 % of control
same,T/C,[5],89 % of control
same,T/C,[6],89 % of control
CC1=NN(c2ccccc2)C(=O)C1N=Nc1ccc([As](=O)(O)O)c(O)c1 (stereo not given),T/C,[3],103 % of control
same,T/C,[1],106 % of control
same,T/C,[4],97 % of control
same,T/C,[5],100 % of control
same,T/C,[6],101 % of control
CC(C)CC(C)(C)COP(=S)(OCC(C)(C)CC(C)C)OCC(C)(C)CC(C)C,T/C,"endpoint: mean survival time, dose: 100.0 mg/kg/injection, schedule: Q04DX002 (ip), vehicle: saline with Tween-80",91 % of control
same,T/C,"endpoint: mean survival time, dose: 200.0 mg/kg/injection, schedule: Q04DX002 (ip), vehicle: saline with Tween-80",91 % of control
same,T/C,"endpoint: mean survival time, dose: 400.0 mg/kg/injection, schedule: Q04DX002 (ip), vehicle: saline with Tween-80",102 % of control
CCOP(=S)(OCC)N1c2ccccc2Sc2ccccc21,T/C,[2],95 % of control
same,T/C,[3],90 % of control
